Laboratory results published in patent EP4667458A1 (Kanaph Therapeutics Inc., priority 2023, dated 2024).

biological target: T1, KRAS^G12C::SOS1 (Homo sapiens, UniProt Q07889); assay: KRAS G12C::SOS1 protein-protein interaction (PPI) inhibition assay (HTRF binding kit); details: not given
T1 sequence (Q07889 1-1333): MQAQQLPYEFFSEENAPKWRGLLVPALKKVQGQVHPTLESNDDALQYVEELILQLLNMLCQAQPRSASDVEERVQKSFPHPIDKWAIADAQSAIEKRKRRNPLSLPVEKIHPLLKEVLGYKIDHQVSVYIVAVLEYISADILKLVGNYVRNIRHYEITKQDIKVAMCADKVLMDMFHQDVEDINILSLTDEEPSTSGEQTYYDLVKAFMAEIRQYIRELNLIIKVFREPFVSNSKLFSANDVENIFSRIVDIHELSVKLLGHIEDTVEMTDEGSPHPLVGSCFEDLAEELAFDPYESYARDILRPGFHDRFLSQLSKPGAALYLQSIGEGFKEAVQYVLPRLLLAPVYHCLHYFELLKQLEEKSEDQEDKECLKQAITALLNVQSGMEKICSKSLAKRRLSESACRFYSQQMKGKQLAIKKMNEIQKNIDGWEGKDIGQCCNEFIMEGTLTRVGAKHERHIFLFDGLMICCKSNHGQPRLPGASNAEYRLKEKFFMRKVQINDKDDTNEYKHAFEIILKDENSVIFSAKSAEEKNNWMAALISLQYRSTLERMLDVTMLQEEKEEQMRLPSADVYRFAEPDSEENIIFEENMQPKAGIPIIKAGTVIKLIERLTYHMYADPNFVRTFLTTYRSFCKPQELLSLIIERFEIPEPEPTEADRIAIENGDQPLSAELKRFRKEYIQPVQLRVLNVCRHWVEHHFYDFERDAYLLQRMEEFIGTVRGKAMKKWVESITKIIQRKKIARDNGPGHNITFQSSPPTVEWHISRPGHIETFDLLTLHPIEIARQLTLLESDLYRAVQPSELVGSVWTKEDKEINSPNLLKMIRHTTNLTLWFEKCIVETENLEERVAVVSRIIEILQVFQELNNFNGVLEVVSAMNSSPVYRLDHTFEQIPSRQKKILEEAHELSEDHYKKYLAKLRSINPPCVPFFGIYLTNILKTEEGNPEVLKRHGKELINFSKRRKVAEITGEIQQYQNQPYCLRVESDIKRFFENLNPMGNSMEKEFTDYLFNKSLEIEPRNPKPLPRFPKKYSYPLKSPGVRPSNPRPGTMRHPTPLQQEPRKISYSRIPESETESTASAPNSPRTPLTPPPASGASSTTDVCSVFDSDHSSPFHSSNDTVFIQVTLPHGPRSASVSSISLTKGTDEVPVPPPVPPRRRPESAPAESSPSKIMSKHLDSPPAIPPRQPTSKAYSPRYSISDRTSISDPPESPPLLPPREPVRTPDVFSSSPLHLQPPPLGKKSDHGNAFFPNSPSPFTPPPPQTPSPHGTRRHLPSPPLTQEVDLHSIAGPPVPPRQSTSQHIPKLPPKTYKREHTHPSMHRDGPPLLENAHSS

Molecule | IC50 [nM]
C[C@@H](NC(=O)c1ccc(=O)n(-c2ncccc2F)n1)c1cc(N)cc(C(F)(F)F)c1 [Example 388] | > 10000
C[C@H](NC(=O)c1ccc(=O)n(-c2ccccc2F)n1)c1cc(N)cc(C(F)(F)F)n1 [Example 394, N-[(1S)-1-[4-amino-6-(trifluoromethyl)-2-pyridyl]ethyl]-1-(2-fluorophenyl)-6-oxo-pyridazine-3-carboxamide] | > 10000
C[C@@H](NC(=O)c1ccc(=O)n(-c2ccccc2F)n1)c1cc(N)cc(C(F)(F)F)n1 [Example 395, N-[(1R)-1-[4-amino-6-(trifluoromethyl)-2-pyridyl]ethyl]-1-(2-fluorophenyl)-6-oxo-pyridazine-3-carboxamide] | 1000 to 10000
CNCc1ccc(C#N)cc1-c1ccc([C@@H](C)NC(=O)c2ccc(=O)n(-c3ccccc3F)n2)s1 [Example 410] | < 1000
CNCc1ccc(Cl)cc1-c1ccc([C@@H](C)NC(=O)c2ccc(=O)n(C3CCOCC3)n2)s1 [Example 411] | < 1000
CNCc1ccccc1-c1ccc([C@@H](C)NC(=O)c2ccc(=O)n(-c3cccnc3F)n2)s1 [Example 412, 1-(2-fluoropyridin-3-yl)-N-[(1R)-1-(5-{2-[(methylamino)methyl]phenyl}thiophen-2-yl)ethyl]-6-oxo-1,6-dihydropyridazine-3-carboxamide] | < 1000
CNCc1ccc(F)cc1-c1ccc([C@@H](C)NC(=O)c2ccc(=O)n(-c3cccc(-c4cnnn4C)c3)n2)s1 [Example 413] | < 1000
C[C@@H](NC(=O)c1ccc(=O)n(-c2cccnc2F)n1)c1ccc(-c2cc(F)ccc2CCN)s1 [Example 414, N-[(1R)-1-[5-[2-(2-aminoethyl)-5-fluorophenyl]-2-thienyl]ethyl]-1-(2-fluoro-3-pyridyl)-6-oxopyridazine-3-carboxamide] | < 1000
C[C@@H](NC(=O)c1ccc(=O)n(-c2cccnc2F)n1)c1ccc(-c2cc(F)ccc2CC#N)s1 [Example 415, N-[(1R)-1-[5-[2-(cyanomethyl)-5-fluorophenyl]-2-thienyl]ethyl]-1-(2-fluoro-3-pyridyl)-6-oxo-pyridazine-3-carboxamide] | < 1000

The next lines start with the values.

IC50 [nM] | Molecule
< 1000 | Cc1ncc(-n2nc(C(=O)N[C@H](C)c3cc(N)cc(C(F)(F)F)c3)ccc2=O)s1 [Example 385, N-[(1R)-1-[3-amino-5-(trifluoromethyl)phenyl]ethyl]-1-(2-methylthiazol-5-yl)-6-oxo-pyridazine-3-carboxamide]
< 1000 | Cc1nc(-n2nc(C(=O)N[C@H](C)c3cc(N)cc(C(F)(F)F)c3)ccc2=O)cs1 [Example 386, N-[(1R)-1-[3-amino-5-(trifluoromethyl)phenyl]ethyl]-1-(2-methylthiazol-4-yl)-6-oxo-pyridazine-3-carboxamide]
< 1000 | C[C@@H](NC(=O)c1ccc(=O)n(-c2ccn(C)n2)n1)c1cc(N)cc(C(F)(F)F)c1 [Example 387, N-[(1R)-1-[3-amino-5-(trifluoromethyl)phenyl]ethyl]-1-(1-methylpyrazol-3-yl)-6-oxo-pyridazine-3-carboxamide]
< 1000 | CNCc1ccc(F)cc1-c1ncc([C@@H](C)NC(=O)c2ccc(=O)n(-c3ccccc3F)n2)s1 [Example 396, N-[(1R)-1-[2-[5-fluoro-2-(methylaminomethyl)phenyl]thiazol-5-yl]ethyl]-1-(2-fluorophenyl)-6-oxo-pyridazine-3-carboxamide]
< 1000 | COCC(F)(F)c1cccc([C@@H](C)NC(=O)c2ccc(=O)n(-c3cccc(-c4cnnn4C)c3)n2)c1F [Example 397]
< 1000 | CNCc1ccccc1-c1ccc([C@@H](C)NC(=O)c2ccc(=O)n(-c3ccc(F)cc3F)n2)s1 [Example 398, (R)-1-(2,4-difluorophenyl)-N-(1-(5-(2-((methylamino)methyl)phenyl)thiophenyl-2-yl)ethyl)-6-oxo-1,6-dihydropyridazine-3-carboxamide]
< 1000 | CNCc1cc(F)c(Cl)cc1-c1ccc([C@@H](C)NC(=O)c2ccc(=O)n(-c3cccnc3F)n2)s1 [Example 399, N-[(1R)-1-(5-{5-chloro-4-fluoro-2-[(methylamino)methyl]phenyl}thiophen-2-yl)ethyl]-1-(2-fluoropyridin-3-yl)-6-oxo-1,6-dihydropyridazine-3-carboxamide]
< 1000 | CNCc1cc(Cl)c(F)cc1-c1ccc([C@@H](C)NC(=O)c2ccc(=O)n(-c3cccnc3F)n2)s1 [Example 400, N-[(1R)-1-(5-{4-chloro-5-fluoro-2-[(methylamino)methyl]phenyl}thiophen-2-yl)ethyl]-1-(2-fluoropyridin-3-yl)-6-oxo-1,6-dihydropyridazine-3-carboxamide]
< 1000 | CNCc1cc(F)c(F)cc1-c1ccc([C@@H](C)NC(=O)c2ccc(=O)n(-c3cccnc3F)n2)s1 [Example 401, N-[(1R)-1-(5-{4,5-difluoro-2-[(methylamino)methyl]phenyl}thiophen-2-yl)ethyl]-1-(2-fluoropyridin-3-yl)-6-oxo-1,6-dihydropyridazine-3-carboxamide]
< 1000 | CNCc1ccc(C)cc1-c1ccc([C@@H](C)NC(=O)c2ccc(=O)n(-c3cccnc3F)n2)s1 [Example 402, 1-(2-fluoropyridin-3-yl)-N-[(1R)-1-(5-{5-methyl-2-[(methylamino)methyl]phenyl}thiophen-2-yl)ethyl]-6-oxo-1,6-dihydropyridazine-3-carboxamide]
< 1000 | C[C@@H](NC(=O)c1ccc(=O)n(-c2cccnc2F)n1)c1ccc(-c2cc(F)ccc2CN(C)C)s1 [Example 403, N-[(1R)-1-(5-{2-[(dimethylamino)methyl]-5-fluorophenyl}thiophen-2-yl)ethyl]-1-(2-fluoropyridin-3-yl)-6-oxo-1,6-dihydropyridazine-3-carboxamide]
< 1000 | C[C@@H](NC(=O)c1ccc(=O)n(-c2cccnc2F)n1)c1ccc(-c2cc(F)ccc2CN)s1 [Example 404]
< 1000 | CCn1cc(-n2nc(C(=O)N[C@H](C)c3ccc(-c4cc(Cl)ccc4CNC)s3)ccc2=O)cn1 [Example 405]
< 1000 | CNCc1ccc(Cl)cc1-c1ccc([C@@H](C)NC(=O)c2ccc(=O)n(-c3cnn(CCOC)c3)n2)s1 [Example 406]
< 1000 | CNCc1ccc(F)cc1-c1ccc([C@@H](C)NC(=O)c2ccc(=O)n(-c3cccnc3OC)n2)s1 [Example 407]
< 1000 | CNCc1c(F)cccc1-c1ccc([C@@H](C)NC(=O)c2ccc(=O)n(-c3cccnc3F)n2)s1 [Example 409]

same assay, conditions: read-out: KRAS ^G12C::SOS1 PPI assay (IC50 range, Grade); maximum concentration 3 µM, 8 concentrations, three replicates

IC50 [nM] | Molecule
< 1000 | CNCc1ccc(F)cc1-c1ccc([C@@H](C)NC(=O)c2ccc(=O)n(-c3cccnc3O)n2)s1 [Example 408]
< 1000 | N-[(1R)-1-[3-amino-5-(trifluoromethyl)phenyl]ethyl]-1-(4-fluorophenyl)-6-oxo-pyridazine-3-carboxamide [Example 172]
1000 to 10000 | N-[(1R)-1-[3-amino-5-(trifluoromethyl)phenyl]ethyl]-6-oxo-1-(3-phenylphenyl)pyridazine-3-carboxamide [Example 212]
< 1000 | N-[(1R)-1-[3-amino-5-(trifluoromethyl)phenyl]ethyl]-6-oxo-1-[3-(4-pyridyl)phenyl]pyridazine-3-carboxamide [Example 346]

Molecule | IC50 [nM]
N-[(1R)-1-[3-amino-5-(trifluoromethyl)phenyl]ethyl]-1-(3-isoxazol-4-ylphenyl)-6-oxo-pyridazine-3-carboxamide [Example 322] | < 1000
